Source: US20050137233A1, “Prodrugs of 1-methyl-2-(4-amidinophenylaminomethyl)-benzimidazol-5-yl-carboxylic acid-(N-2-pyridyl-N-2-hydroxycarbonylethyl)-amide” (Boehringer Ingelheim Pharma GmbH & Co. KG, priority 2002, published 2005)

Tests used:
[1] = conversion of the prodrugs into active substance II, plasma concentration by HPLC-MS/MS after subcutaneous administration; format: in vivo; settings: rabbits, after subcutaneous injection, active substance II measured in plasma, detection limit 4 ng/ml
Protocol: In order to investigate the conversion of the prodrugs A and B into the active substance II, 1.0 ml of blood were taken from the central auricular artery of each of the test animals with K-EDTA syringes at various times after subcutaneous administration. The blood was centrifuged and the plasma was acidified with the same volume of 0.2 M hydrochloric acid. These solutions were stored at −20° C. The concentrations of the active substance II were measured using an HPLC-MS/MS apparatus (Perkin Elmer Sciex API 300 LC-MS/MS system). The detection limit was 4 ng/ml.

female rabbits = test: local tolerance after subcutaneous administration, histological comparison of injection sites with placebo sites; format: in vivo
Description: For example the compounds • A=1-methyl-2-[4-(N-hydroxyamidino)-phenylaminomethyl]-benzimidazol-5-yl-carboxylic acid-(N-2-pyridyl-N-2-ethoxycarbonylethyl)-amide and • B=1-methyl-2-[4-(N-methoxycarbonylamidino)-phenylaminomethyl]-benzimidazol-5-yl-carboxylic acid-(N-2-pyridyl-N-2-hydroxycarbonylethyl)-amide were investigated for their degree of tolerance when administered by subcutaneous route by comparison with active substance II:
Solutions of the test substances were each administered by subcutaneous route once a day on three successive days to two female rabbits (age: 11 to 14 weeks, weight: 2.0 to 3.5 kg). At the same time as the substances were administered a placebo solution was injected contralaterally into the same animal. The animals were killed 48 hours after the last administration and dissected. The injection sites for administering the test substances were compared histologically with the sites of the placebo injections.

Structure (SMILES)	conversion of the prodrug into the active substance II [1]	degree of tolerance at the injection sites when administered by subcutaneous route (female rabbits; rabbit, in vivo, sc)	degree of tolerance at the injection sites when administered by subcutaneous route (female rabbits; female rabbits, subcutaneous once a day on three successive days, histology 48 hours after the last administration, versus contralateral placebo injection)
CCOC(=O)CCN(C(=O)c1ccc2c(c1)nc(CNc1ccc(/C(N)=N\O)cc1)n2C)c1ccccn1 [A, 1-methyl-2-[4-(N-hydroxyamidino)-phenylaminomethyl]-benzimidazol-5-yl-carboxylic acid-(N-2-pyridyl-N-2-ethoxycarbonylethyl)-amide]	converted into the active substance II	very well tolerated locally	
COC(=O)/N=C(/N)c1ccc(NCc2nc3cc(C(=O)N(CCC(=O)O)c4ccccn4)ccc3n2C)cc1 [B, 1-methyl-2-[4-(N-methoxycarbonylamidino)-phenylaminomethyl]-benzimidazol-5-yl-carboxylic acid-(N-2-pyridyl-N-2-hydroxycarbonylethyl)-amide]	converted into the active substance II		very well tolerated locally
Cn1c(CNc2ccc(C(=N)N)cc2)nc2cc(C(=O)N(CCC(=O)O)c3ccccn3)ccc21 [II, 1-methyl-2-(4-amidinophenylaminomethyl)-benzimidazol-5-yl-carboxylic acid-(N-2-pyridyl-N-2-hydroxycarbonylethyl)-amide]		clear signs of inflammation at the injection sites	
